# Results: patent publication US12612410B2 (CHILDREN'S HOSPITAL MEDICAL CENTER, priority 2020, dated 2026)
# Assays:
# MOLM14 D835Y cells = experiment: MOLM14 D835Y cell viability assay (Cell Titer Glo); format: cell-based; details: Homo sapiens, MOLM-14, 48 h
# Procedure: Both cell lines have activated FLT3 receptors, each of which carry additional resistance mutations in the kinase domain (D835Y and F691L, respectively).
# MOLM14 D835Y and MOLM14 F691L cells were grown in RPMI-1640 media supplemented with 20% fetal bovine serum (FBS). For viability/cytotoxicity assessments, cells were seeded into 1536-well white polystyrene tissue culture-treated Greiner plates using a Multidrop Combi dispenser (ThermoFisher), in final volume 5 μL of growth media per well, at a density of 1000 cells per well. After cell addition, 23 nL of test compound were transferred into individual wells (22 doses tested for each test compound, with a 1:2 dilution series starting at 10 μM) via a 1536 pin-tool. Bortezomib (final concentration 2.3 μM) was used as a positive control for cell cytotoxicity. Plates were incubated for 48 hours at standard incubator conditions covered by a stainless steel gasketed lid to prevent evaporation. 48 hours post compound addition, 3 μL of Cell Titer Glo (Promega) were added to each well and plates were incubated at room temperature for 15 minutes with the stainless-steel lid in place. Luminescence readings were taken using a Viewlux imager (PerkinElmer) with a 2 second exposure time per plate.
# IRAK1 = target: T1, IRAK1 (Homo sapiens, UniProt P51617); experiment: RBC HotSpot Kinase Assay, IRAK1; format: biochemical; details: isolated kinase, 33P-ATP
# T1 construct: purchased Reaction Biology (RBC), HotSpot kinase assay
# Text: (§1) This assay uses the isolated kinase enzyme. This assay is very useful for determining competition of the inhibitor for ATP and/or substrates and for measuring the kinetics of enzyme inhibition. […] Unlike kinase binding assays that measure competition for ATP, the HotSpot Kinase Assay is a functional assay that measures catalytic activity; as such it measures relative functional potency regardless of the mechanism of enzyme inhibition. This assay uses the form of the various enzymes that are easiest to express, which may not necessarily be the form of the enzyme that exist in the cell. (Sometimes the carboxy terminus has been truncated to aid in expression, or, if it is a receptor kinase, the enzyme itself is isolated from the other parts of the receptor that are involved in regulating kinase activity.)
# (§2) The reagent used was as follows: Base Reaction buffer; 20 mM Hepes (pH 7.5), 10 mM MgCl2, 1 mM EGTA, 0.01% Brij35, 0.02 mg/ml BSA, 0.1 mM Na3VO4, 2 mM DTT, 1% DMSO. Required cofactors were added individually to each kinase reaction.
# (§3) The reaction procedure was as follows: • 1) Substrates were prepared in freshly prepared Reaction Buffer. • 2) Any required cofactors were delivered to the substrate solution above. • 3) Kinase was delivered into the substrate solution and gently mixed. • 4) Compounds were delivered in 100% DMSO into the kinase reaction mixture by Acoustic technology (Echo550; nanoliter range), followed by incubation for 20 min at room temp. • 5)^33P-ATP was delivered into the reaction mixture to initiate the reaction. • 6) The mixture was incubated for 2 hours at room temperature. • 7) Kinase activity was detected by P81 filter-binding method.
# IRAK4 = target: T2, IRAK4 (Homo sapiens, UniProt Q9NWZ3); experiment: RBC HotSpot Kinase Assay, IRAK4; format: biochemical; design: purchased Reaction Biology (RBC), HotSpot kinase assay; details: isolated kinase, 33P-ATP
# T2 sequence (Q9NWZ3 1-460): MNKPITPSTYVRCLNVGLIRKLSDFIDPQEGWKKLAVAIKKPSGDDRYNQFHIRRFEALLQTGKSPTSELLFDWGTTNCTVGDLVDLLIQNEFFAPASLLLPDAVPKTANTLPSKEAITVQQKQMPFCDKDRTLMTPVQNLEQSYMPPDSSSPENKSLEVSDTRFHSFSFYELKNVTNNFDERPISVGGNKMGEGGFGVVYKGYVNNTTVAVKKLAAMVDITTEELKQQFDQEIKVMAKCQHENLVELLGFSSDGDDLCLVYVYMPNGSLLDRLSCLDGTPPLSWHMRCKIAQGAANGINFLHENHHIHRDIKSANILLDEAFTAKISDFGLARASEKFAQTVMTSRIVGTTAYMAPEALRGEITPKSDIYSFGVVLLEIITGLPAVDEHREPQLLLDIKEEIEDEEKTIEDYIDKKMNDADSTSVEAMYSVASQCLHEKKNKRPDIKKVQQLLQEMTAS
# Text: as §1, §2, §3
# FLT3 = target: T3, FLT3 (Homo sapiens, UniProt P36888); experiment: RBC HotSpot Kinase Assay, FLT3; format: biochemical; design: purchased Reaction Biology (RBC), HotSpot kinase assay; details: isolated kinase, 33P-ATP
# T3 sequence (P36888 27-993): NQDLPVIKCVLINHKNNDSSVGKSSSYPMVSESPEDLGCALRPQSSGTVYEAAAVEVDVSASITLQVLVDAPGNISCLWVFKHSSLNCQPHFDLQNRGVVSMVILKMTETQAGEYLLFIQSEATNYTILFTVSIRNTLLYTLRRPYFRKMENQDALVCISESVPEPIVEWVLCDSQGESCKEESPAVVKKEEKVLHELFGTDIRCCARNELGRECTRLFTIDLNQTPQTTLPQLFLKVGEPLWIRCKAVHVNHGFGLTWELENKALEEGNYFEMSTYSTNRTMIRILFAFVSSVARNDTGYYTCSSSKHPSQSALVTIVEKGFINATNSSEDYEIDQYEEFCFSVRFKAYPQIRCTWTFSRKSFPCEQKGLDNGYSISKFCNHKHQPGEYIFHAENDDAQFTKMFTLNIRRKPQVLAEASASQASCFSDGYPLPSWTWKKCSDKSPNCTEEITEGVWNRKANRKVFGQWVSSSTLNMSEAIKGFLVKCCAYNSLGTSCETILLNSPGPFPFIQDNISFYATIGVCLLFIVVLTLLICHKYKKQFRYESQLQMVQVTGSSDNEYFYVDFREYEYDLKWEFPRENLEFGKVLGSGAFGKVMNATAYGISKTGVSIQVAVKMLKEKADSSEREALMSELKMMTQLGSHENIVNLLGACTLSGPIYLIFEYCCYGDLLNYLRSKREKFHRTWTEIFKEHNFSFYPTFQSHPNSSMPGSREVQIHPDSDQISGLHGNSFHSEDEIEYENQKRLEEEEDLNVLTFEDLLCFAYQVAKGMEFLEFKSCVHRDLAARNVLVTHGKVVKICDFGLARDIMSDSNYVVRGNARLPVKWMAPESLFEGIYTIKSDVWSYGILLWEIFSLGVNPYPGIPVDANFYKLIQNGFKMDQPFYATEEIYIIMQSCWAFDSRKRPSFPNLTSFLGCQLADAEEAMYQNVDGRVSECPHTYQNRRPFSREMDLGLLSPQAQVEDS
# Text: as §1, §2, §3
# T1 sequence (P51617 whole entry): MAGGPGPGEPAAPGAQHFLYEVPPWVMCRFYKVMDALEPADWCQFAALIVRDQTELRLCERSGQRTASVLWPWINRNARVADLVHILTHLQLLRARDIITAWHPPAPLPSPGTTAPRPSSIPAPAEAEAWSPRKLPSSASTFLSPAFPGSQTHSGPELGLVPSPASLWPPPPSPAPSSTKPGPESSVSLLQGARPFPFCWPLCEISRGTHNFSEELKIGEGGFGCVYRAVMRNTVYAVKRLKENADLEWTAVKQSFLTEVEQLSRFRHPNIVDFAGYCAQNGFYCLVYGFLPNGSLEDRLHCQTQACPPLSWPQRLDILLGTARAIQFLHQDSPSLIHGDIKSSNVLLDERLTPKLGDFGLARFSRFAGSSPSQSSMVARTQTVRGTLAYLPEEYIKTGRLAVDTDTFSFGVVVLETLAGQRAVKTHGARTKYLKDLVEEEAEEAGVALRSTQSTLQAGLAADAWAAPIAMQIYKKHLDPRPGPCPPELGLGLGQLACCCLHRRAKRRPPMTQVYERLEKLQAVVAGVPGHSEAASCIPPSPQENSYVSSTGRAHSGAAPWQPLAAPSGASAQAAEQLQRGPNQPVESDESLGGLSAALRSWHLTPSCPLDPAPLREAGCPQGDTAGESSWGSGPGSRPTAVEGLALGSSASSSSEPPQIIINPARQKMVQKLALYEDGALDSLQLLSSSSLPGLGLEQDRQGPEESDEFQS
SMILES,IC50 (MOLM14 D835Y cells) [nM],IC50 (IRAK1) [nM],IC50 (IRAK4) [nM],IC50 (FLT3) [nM]
"C[C@H]1CNC[C@@H]1Nc1cccc(-c2cnc3cnc(C4(C(F)(F)F)CC4)cn23)n1 [Compound 11, N-((3R,4S)-4-methylpyrrolidin-3-yl)-6-(6-(1-(trifluoromethyl)cyclopropyl)imidazo[1,2-a]pyrazin-3-yl)pyridin-2-amine]",15,301,3,< 0.5
"C[C@H]1CNC[C@@H]1Nc1cccc(-c2cnc3cnc(C(C)(C)O)cn23)n1 [Compound 29, 2-(3-(6-(((3R,4S)-4-methylpyrrolidin-3-yl)amino)pyridin-2-yl)imidazo[1,2-a]pyrazin-6-yl)propan-2-ol]",42,273,1,0.6
"c1cc(N[C@@H]2CCCNC2)nc(-c2cnc3cnc(-c4cnn(C5CC5)c4)cn23)c1 [Compound 45, (R)-6-(6-(1-cyclopropyl-1H-pyrazol-4-yl)imidazo[1,2-a]pyrazin-3-yl)-N-(piperidin-3-yl)pyridin-2-amine]",–,1990,12,< 0.5
"C[C@H]1C[C@@H](Nc2cccc(-c3cnc4cnc(C5(C)CC5)cn34)n2)CCN1 [Compound 7, 6-(6-(1-methylcyclopropyl)imidazo[1,2-a]pyrazin-3-yl)-N-((2S,4S)-2-methylpiperidin-4-yl)pyridin-2-amine]",–,3280,1020,1
"O=C1CC2(COC2)CN1c1cn2c(-c3cccc(N[C@H]4CNC[C@@H]4F)n3)cnc2cn1 [compound 62, 6-(3-(6-(((3S,4S)-4-fluoropyrrolidin-3-yl)amino)pyridin-2-yl)imidazo[1,2-a]pyrazin-6-yl)-2-oxa-6-azaspiro[3.4]octan-7-one]",–,7010,86,< 0.5
"FC(F)c1cn2c(-c3cccc(N[C@@H]4CCNC4)n3)cnc2cn1 [Compound 18, (R)-6-(6-(difluoromethyl)imidazo[1,2-a]pyrazin-3-yl)-N-(pyrrolidin-3-yl)pyridin-2-amine]",14,82,1,< 0.5
"F[C@H]1CNC[C@@H]1Nc1cccc(-c2cnc3cnc(N4CCC(F)(F)C4)cn23)n1 [Compound 67, 6-(6-(3,3-difluoropyrrolidin-1-yl)imidazo[1,2-a]pyrazin-3-yl)-N-((3S,4S)-4-fluoropyrrolidin-3-yl)pyridin-2-amine]",–,8190,4,0.7
"C[C@H]1C[C@@H](Nc2cccc(-c3cnc4cnc(OCC(F)(F)F)cn34)n2)CCN1 [Compound 42, N-((2S,4S)-2-methylpiperidin-4-yl)-6-(6-(2,2,2-trifluoroethoxy)imidazo[1,2-a]pyrazin-3-yl)pyridin-2-amine]",–,413,339,0.6
"C[C@H]1C[C@@H](Nc2cccc(-c3cnc4cnc(C(F)F)cn34)n2)CCN1 [Compound 22, 6-(6-(difluoromethyl)imidazo[1,2-a]pyrazin-3-yl)-N-((2S,4S)-2-methylpiperidin-4-yl)pyridin-2-amine]",–,474,669,1
"c1cc(N[C@@H]2CCCNC2)nc(-c2cnc3cnccn23)c1 [Compound 69, (R)-6-(imidazo[1,2-a]pyrazin-3-yl)-N-(piperidin-3-yl)pyridin-2-amine]",–,2030,15,< 0.5
"CC1(C)CCN(c2cn3c(-c4cccc(N[C@H]5CNC[C@@H]5F)n4)cnc3cn2)C1=O [Compound 61, 1-(3-(6-(((3S,4S)-4-fluoropyrrolidin-3-yl)amino)pyridin-2-yl)imidazo[1,2-a]pyrazin-6-yl)-3,3-dimethylpyrrolidin-2-one]",–,3540,46,2
"OC1(C(F)(F)F)CCN(c2cn3c(-c4cccc(N[C@H]5CNC[C@@H]5F)n4)cnc3cn2)C1 (stereo partly drawn) [Compound 66, 1-(3-(6-(((3S,4S)-4-fluoropyrrolidin-3-yl)amino)pyridin-2-yl)imidazo[1,2-a]pyrazin-6-yl)-3-(trifluoromethyl)pyrrolidin-3-ol]",–,6020,4,1
"CC(C)(O)c1cn2c(-c3cccc(N[C@H]4CNC[C@@H](F)C4)n3)cnc2cn1 [Compound 32, 2-(3-(6-(((3R,5S)-5-fluoropiperidin-3-yl)amino)pyridin-2-yl)imidazo[1,2-a]pyrazin-6-yl)propan-2-ol]",–,385,3,< 0.5
"F[C@H]1CNC[C@@H]1Nc1cccc(-c2cnc3cnc(-c4cnn5ccccc45)cn23)n1 [Compound 55, N-((3S,4S)-4-fluoropyrrolidin-3-yl)-6-(6-(pyrazolo[1,5-a]pyridin-3-yl)imidazo[1,2-a]pyrazin-3-yl)pyridin-2-amine]",–,304,< 0.5,< 0.5
CC1(C)CNCC1Nc1cccc(-c2cnc3cnccn23)n1 (stereo not drawn) [Compound 72],–,4190,14,< 0.5
"CC1(c2cn3c(-c4cccc(N[C@H]5CNC[C@@H]5C(F)(F)F)n4)cnc3cn2)CC1 [Compound 4, 6-(6-(1-methylcyclopropyl)imidazo[1,2-a]pyrazin-3-yl)-N-((3R,4S)-4-(trifluoromethyl)pyrrolidin-3-yl)pyridin-2-amine]",–,451,2,0.9
"FC(F)c1cn2c(-c3cccc(N[C@H]4CNCC4(F)F)n3)cnc2cn1 [Compound 23, 6-(6-(difluoromethyl)imidazo[1,2-a]pyrazin-3-yl)-N-(4,4-difluoropyrrolidin-3-yl)pyridin-2-amine]",–,185,7,< 0.5
